Experimental data as given in patent US9855204B1, “Methods and compositions for treating androgenetic alopecia” (priority 2015, dated 2018).

How the values were obtained:
[1] = test system: Androgenetic Alopecia Males; experiment: Androgenetic Alopecia Males Arm 1, Global Photographic Assessment (Omnia System); format: in vivo, human; settings: 2 mg once daily, 6 months, 20 treated
Source text: (§1) The description of the experiments and their results are presented in the 4 tables below. In these experiments the subjects self-administered CEP for at least 6 months.

[2] = test system: Androgenetic Alopecia Males; experiment: Androgenetic Alopecia Males Arm 2, Global Photographic Assessment (Omnia System); format: in vivo, human; settings: 2 mg once every other day, 6 months, 20 treated
Source text: as §1

[3] = test system: Androgenic Alopecia Females; experiment: Androgenic Alopecia Females, Global Photographic Assessment (Omnia System); format: in vivo, human; settings: 2 mg daily, 6 months, 15 treated
Source text: as §1

[4] = test system: androgenetic alopecia; experiment: CEP in subjects with androgenetic alopecia, overall findings of the experiments; format: in vivo, human; settings: inferred from benefit in users who skipped daily doses
Source text: It is effective when dosed once daily or even once every other day, both of which make compliance much easier than dividing the doses into greater frequency. It is effective without regard to consumption following meals.
as §1
Some users were not perfectly compliant, sometimes skipping their daily doses. […] The expected effective dose range is from about 0.5 mg per day to about 100 mg per day.

[5] = prior medical use of CEP; cited from earlier work
[6] = test system: DHT levels; settings: 1 mg dose taken daily; cited from earlier work
[7] = test system: male pattern baldness; settings: cited from earlier work

In the case of `COc1ccc2cc1Oc1ccc(cc1)C[C@H]1c3c(cc4c(c3Oc3cc5c(cc3OC)CCN(C)[C@@H]5C2)OCO4)CCN1C` [Cepharanthine], the “number of subjects with score Greatly decreased” value [1] is reported as 0, the “number of subjects with score Greatly increased” value [1] is reported as 1 and the “number of subjects with score Moderately decreased” value [1] is reported as 0. For the same molecule, the “number of subjects with score Moderately increased” value [1] was 7, the “number of subjects with score No change” value [1] was 3 and the “number of subjects with score Slightly decreased” value [1] was 1. The “number of subjects with score Slightly increased” value [1] was 8, the “number of subjects with score Greatly decreased” value [2] was 0 and the “number of subjects with score Greatly increased” value [2] was 0. For the same molecule, the “number of subjects with score Moderately decreased” value [2] was 0, the “number of subjects with score Moderately increased” value [2] was 5 and the “number of subjects with score No change” value [2] was 4. The “number of subjects with score Slightly decreased” value [2] was 2, the “number of subjects with score Slightly increased” value [2] was 9 and the “number of subjects with score Greatly decreased” value [3] was 0. For the same molecule, the “number of subjects with score Greatly increased” value [3] was 1, the “number of subjects with score Moderately decreased” value [3] was 0 and the “number of subjects with score Moderately increased” value [3] was 2. For the same molecule, the “number of subjects with score No change” value [3] was 3, the “number of subjects with score Slightly decreased” value [3] was 1 and the “number of subjects with score Slightly increased” value [3] was 8. For the same molecule, the effective dose [4] was “about 0.5 mg CEP a day”, the safety issues [5] was “No safety issues have been observed” and the side effects [5] was “very rarely reported”.

In the case of `CC(C)(C)NC(=O)[C@H]1CC[C@H]2[C@@H]3CC[C@H]4NC(=O)C=C[C@]4(C)[C@H]3CC[C@]12C` [finasteride, Finasteride], the “lowering of DHT levels” value [6] is listed as ≤ 60%, the “trial participants with substantial increase in hair growth” value ([7]; clinical trials, men) is listed as 65% and the “men in whom progression of hair loss stopped” value ([7]; men taking the drug during clinical trials) is listed as 86%. For the same molecule, the “men experiencing transient sexual side effects including erectile and libido difficulties” value ([7]; men) was “Less than 2%”.
